Laboratory results reported in US20230085307A1, “PYRIDAZINONE COMPOUND AND HERBICIDE” (NISSAN CHEMICAL CORPORATION, priority 2019, published 2023).

Assays:
barnyard grass [1] = test: Test Example 3: herbicidal effect by foliage application, Wagner pot (Table 18, symbol H); type: in vivo, barnyard grass (Echinochloa crus-galli); conditions: amount of applied herbicide 320 g/ha
How it was run: (§1)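 Plants were sown in alluvial soil held under 0.1–0.5 cm standing water and grown 14 days in a greenhouse at 25–30 °C. An emulsifiable formulation, water-diluted to the set dose, was then sprayed onto the foliage, and effects were scored three weeks later using previously defined criteria.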

velvetleaf [2] = test: Test Example 5: herbicidal effect by foliage application, plastic box (Table 20, symbol M); type: in vivo, velvetleaf (Abutilon theophrasti); conditions: foliage application, 320 g/ha
How it was run: (§2)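 Plants were sown into sterilized diluvial soil under about 1.5 cm cover and kept in a greenhouse at 25° C. to 30° C. Fourteen days on, foliage received an even spray of the diluted emulsion. Herbicidal or crop effect was judged three weeks afterwards.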

windgrass [3] = test: Test Example 5: herbicidal effect by foliage application, plastic box (Table 20, symbol L); type: in vivo, windgrass (Apera spica-venti); conditions: foliage application, 320 g/ha
How it was run: as §2

wild oat [4] = test: Test Example 4: herbicidal effect by soil treatment (Table 19, symbol I); type: in vivo, wild oat (Avena fatua); conditions: amount of applied herbicide 320 g/ha
How it was run: (§3)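 Pre-emergence style soil spray: seeds under ~1.5 cm sterilized diluvial soil received a uniform coat of emulsion diluted to the predetermined herbicide amount. Greenhouse 25–30° C; readout at week three on previously defined criteria.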

Chinese sprangletop = test: Test Example 3: herbicidal effect by foliage application, Wagner pot (Table 18, symbol D); type: in vivo, chinese sprangletop (Leptochloa chinensis); conditions: amount of applied herbicide 320 g/ha
How it was run: as §1

persian speedwell [5] = test: Test Example 4: herbicidal effect by soil treatment (Table 19, symbol R); type: in vivo, Persian speedwell (Veronica persica); conditions: amount of applied herbicide 320 g/ha
How it was run: as §3

barnyard grass [6] = test: Test Example 5: herbicidal effect by foliage application, plastic box (Table 20, symbol H); type: in vivo, barnyard grass (Echinochloa crus-galli); conditions: foliage application, 320 g/ha
How it was run: as §2

redroot pigweed [7] = test: Test Example 5: herbicidal effect by foliage application, plastic box (Table 20, symbol N); type: in vivo, redroot pigweed (Amaranthus retroflexus); conditions: foliage application, 320 g/ha
How it was run: as §2

southern crabgrass [8] = test: Test Example 4: herbicidal effect by soil treatment (Table 19, symbol F); type: in vivo, southern crabgrass (Digitaria ciliaris); conditions: amount of applied herbicide 320 g/ha
How it was run: as §3

lambsquarters [9] = test: Test Example 4: herbicidal effect by soil treatment (Table 19, symbol O); type: in vivo, lambsquarters (Chenopodium album); conditions: amount of applied herbicide 320 g/ha
How it was run: as §3

redroot pigweed [10] = test: Test Example 4: herbicidal effect by soil treatment (Table 19, symbol N); type: in vivo, redroot pigweed (Amaranthus retroflexus); conditions: amount of applied herbicide 320 g/ha
How it was run: as §3

windgrass [11] = test: Test Example 4: herbicidal effect by soil treatment (Table 19, symbol L); type: in vivo, windgrass (Apera spica-venti); conditions: amount of applied herbicide 320 g/ha
How it was run: as §3

lambsquarters [12] = test: Test Example 5: herbicidal effect by foliage application, plastic box (Table 20, symbol O); type: in vivo, lambsquarters (Chenopodium album); conditions: foliage application, 320 g/ha
How it was run: as §2

green foxtail [13] = test: Test Example 5: herbicidal effect by foliage application, plastic box (Table 20, symbol G); type: in vivo, green foxtail (Setaria viridis); conditions: foliage application, 320 g/ha
How it was run: as §2

wild oat [14] = test: Test Example 5: herbicidal effect by foliage application, plastic box (Table 20, symbol I); type: in vivo, wild oat (Avena fatua); conditions: foliage application, 320 g/ha
How it was run: as §2

Italian ryegrass [15] = test: Test Example 5: herbicidal effect by foliage application, plastic box (Table 20, symbol K); type: in vivo, Italian ryegrass (Lolium multiflorum); conditions: foliage application, 320 g/ha
How it was run: as §2

velvetleaf [16] = test: Test Example 4: herbicidal effect by soil treatment (Table 19, symbol M); type: in vivo, velvetleaf (Abutilon theophrasti); conditions: amount of applied herbicide 320 g/ha
How it was run: as §3

southern crabgrass [17] = test: Test Example 5: herbicidal effect by foliage application, plastic box (Table 20, symbol F); type: in vivo, southern crabgrass (Digitaria ciliaris); conditions: foliage application, 320 g/ha
How it was run: as §2

green foxtail [18] = test: Test Example 4: herbicidal effect by soil treatment (Table 19, symbol G); type: in vivo, green foxtail (Setaria viridis); conditions: amount of applied herbicide 320 g/ha
How it was run: as §3

blackgrass [19] = test: Test Example 5: herbicidal effect by foliage application, plastic box (Table 20, symbol J); type: in vivo, blackgrass (Alopecurus myosuroides); conditions: foliage application, 320 g/ha
How it was run: as §2

Italian ryegrass [20] = test: Test Example 4: herbicidal effect by soil treatment (Table 19, symbol K); type: in vivo, Italian ryegrass (Lolium multiflorum); conditions: amount of applied herbicide 320 g/ha
How it was run: as §3

rice flat sedge = test: Test Example 3: herbicidal effect by foliage application, Wagner pot (Table 18, symbol E); type: in vivo, rice flat sedge (Cyperus iria); conditions: amount of applied herbicide 320 g/ha
How it was run: as §1

chickweed [21] = test: Test Example 4: herbicidal effect by soil treatment (Table 19, symbol P); type: in vivo, common chickweed (Stellaria media); conditions: amount of applied herbicide 320 g/ha
How it was run: as §3

false cleavers = test: Test Example 4: herbicidal effect by soil treatment (Table 19, symbol Q); type: in vivo, false cleavers (Galium spurium); conditions: amount of applied herbicide 320 g/ha
How it was run: as §3

persian speedwell [22] = test: Test Example 5: herbicidal effect by foliage application, plastic box (Table 20, symbol R); type: in vivo, Persian speedwell (Veronica persica); conditions: foliage application, 320 g/ha
How it was run: as §2

chickweed [23] = test: Test Example 5: herbicidal effect by foliage application, plastic box (Table 20, symbol P); type: in vivo, common chickweed (Stellaria media); conditions: foliage application, 320 g/ha
How it was run: as §2

blackgrass [24] = test: Test Example 4: herbicidal effect by soil treatment (Table 19, symbol J); type: in vivo, blackgrass (Alopecurus myosuroides); conditions: amount of applied herbicide 320 g/ha
How it was run: as §3

barnyard grass [25] = test: Test Example 4: herbicidal effect by soil treatment (Table 19, symbol H); type: in vivo, barnyard grass (Echinochloa crus-galli); conditions: amount of applied herbicide 320 g/ha
How it was run: as §3

[26] = evaluated 3 weeks after application

C=CCSc1ccc(-c2sc3ccc(F)cc3c2-c2c(O)c(C)nn(C)c2=O)cc1 [2-422]
herbicidal effect on H: barnyard grass (barnyard grass [1]): 5 (Herbicidal rate of 90% or more (almost completely withered))
M: velvetleaf, herbicidal effect grade (velvetleaf [2]; three weeks after application): 5 (Herbicidal rate of 90% or more (almost completely withered))
L: windgrass, herbicidal effect grade (windgrass [3]; three weeks after application): 5 (Herbicidal rate of 90% or more (almost completely withered))
herbicidal effect, I: wild oat (wild oat [4]): 0 (Herbicidal rate of 5% or less (almost no effect))
herbicidal effect on D: Chinese sprangletop (Chinese sprangletop): 3 (Herbicidal rate of 40% or more and less than 70%)
herbicidal effect, R: persian speedwell (persian speedwell [5]): 0 (Herbicidal rate of 5% or less (almost no effect))
H: barnyard grass, herbicidal effect grade (barnyard grass [6]; three weeks after application): 5 (Herbicidal rate of 90% or more (almost completely withered))
N: redroot pigweed, herbicidal effect grade (redroot pigweed [7]; three weeks after application): 5 (Herbicidal rate of 90% or more (almost completely withered))
herbicidal effect, F: southern crabgrass (southern crabgrass [8]): 1 (Herbicidal rate of 5% or more and less than 20%)
herbicidal effect, O: lambsquarters (lambsquarters [9]): 3 (Herbicidal rate of 40% or more and less than 70%)
herbicidal effect, N: redroot pigweed (redroot pigweed [10]): 5 (Herbicidal rate of 90% or more (almost completely withered))
herbicidal effect, L: windgrass (windgrass [11]): 0 (Herbicidal rate of 5% or less (almost no effect))
O: lambsquarters, herbicidal effect grade (lambsquarters [12]; three weeks after application): 5 (Herbicidal rate of 90% or more (almost completely withered))
G: green foxtail, herbicidal effect grade (green foxtail [13]; three weeks after application): 5 (Herbicidal rate of 90% or more (almost completely withered))
I: wild oat, herbicidal effect grade (wild oat [14]; three weeks after application): 5 (Herbicidal rate of 90% or more (almost completely withered))
K: Italian ryegrass, herbicidal effect grade (Italian ryegrass [15]; three weeks after application): 5 (Herbicidal rate of 90% or more (almost completely withered))
herbicidal effect, M: velvetleaf (velvetleaf [16]): 1 (Herbicidal rate of 5% or more and less than 20%)
F: southern crabgrass, herbicidal effect grade (southern crabgrass [17]; three weeks after application): 2 (Herbicidal rate of 20% or more and less than 40%)
herbicidal effect, G: green foxtail (green foxtail [18]): 2 (Herbicidal rate of 20% or more and less than 40%)
J: blackgrass, herbicidal effect grade (blackgrass [19]; three weeks after application): 4 (Herbicidal rate of 70% or more and less than 90%)
herbicidal effect, K: Italian ryegrass (Italian ryegrass [20]): 0 (Herbicidal rate of 5% or less (almost no effect))
herbicidal effect on E: rice flat sedge (rice flat sedge): 5 (Herbicidal rate of 90% or more (almost completely withered))
herbicidal effect, P: chickweed (chickweed [21]): 0 (Herbicidal rate of 5% or less (almost no effect))
herbicidal effect, Q: false cleavers (false cleavers): 0 (Herbicidal rate of 5% or less (almost no effect))
R: persian speedwell, herbicidal effect grade (persian speedwell [22]; three weeks after application): 5 (Herbicidal rate of 90% or more (almost completely withered))
P: chickweed, herbicidal effect grade (chickweed [23]; three weeks after application): 5 (Herbicidal rate of 90% or more (almost completely withered))
herbicidal effect, J: blackgrass (blackgrass [24]): 0 (Herbicidal rate of 5% or less (almost no effect))
herbicidal effect, H: barnyard grass (barnyard grass [25]): 1 (Herbicidal rate of 5% or more and less than 20%)

Cc1nn(C)c(=O)c(-c2c(-c3ccc(Cl)s3)oc3ccc(F)cc23)c1O [9-047]
Herbicidal effect on H (barnyard grass), foliage application (barnyard grass [1]): 2 (Herbicidal rate of 20% or more and less than 40%)
M (velvetleaf) herbicidal effect grade (velvetleaf [2]; [26]): 2 (Herbicidal rate of 20% or more and less than 40%)
L (windgrass) herbicidal effect grade (windgrass [3]; [26]): 0 (Herbicidal rate of 5% or less (almost no effect))
I: wild oat, herbicidal effect grade (wild oat [4]): 0 (Herbicidal rate of 5% or less (almost no effect))
Herbicidal effect on D (Chinese sprangletop), foliage application (Chinese sprangletop): 0 (Herbicidal rate of 5% or less (almost no effect))
R: persian speedwell, herbicidal effect grade (persian speedwell [5]): 1 (Herbicidal rate of 5% or more and less than 20%)
H (barnyard grass) herbicidal effect grade (barnyard grass [6]; [26]): 3 (Herbicidal rate of 40% or more and less than 70%)
N (redroot pigweed) herbicidal effect grade (redroot pigweed [7]; [26]): 3 (Herbicidal rate of 40% or more and less than 70%)
F: southern crabgrass, herbicidal effect grade (southern crabgrass [8]): 0 (Herbicidal rate of 5% or less (almost no effect))
O: lambsquarters, herbicidal effect grade (lambsquarters [9]): 0 (Herbicidal rate of 5% or less (almost no effect))
N: redroot pigweed, herbicidal effect grade (redroot pigweed [10]): 3 (Herbicidal rate of 40% or more and less than 70%)
L: windgrass, herbicidal effect grade (windgrass [11]): 0 (Herbicidal rate of 5% or less (almost no effect))
O (lambsquarters) herbicidal effect grade (lambsquarters [12]; [26]): 1 (Herbicidal rate of 5% or more and less than 20%)
G (green foxtail) herbicidal effect grade (green foxtail [13]; [26]): 2 (Herbicidal rate of 20% or more and less than 40%)
I (wild oat) herbicidal effect grade (wild oat [14]; [26]): 1 (Herbicidal rate of 5% or more and less than 20%)
K (Italian ryegrass) herbicidal effect grade (Italian ryegrass [15]; [26]): 4 (Herbicidal rate of 70% or more and less than 90%)
M: velvetleaf, herbicidal effect grade (velvetleaf [16]): 0 (Herbicidal rate of 5% or less (almost no effect))
F (southern crabgrass) herbicidal effect grade (southern crabgrass [17]; [26]): 3 (Herbicidal rate of 40% or more and less than 70%)
G: green foxtail, herbicidal effect grade (green foxtail [18]): 0 (Herbicidal rate of 5% or less (almost no effect))
J (blackgrass) herbicidal effect grade (blackgrass [19]; [26]): 0 (Herbicidal rate of 5% or less (almost no effect))
K: Italian ryegrass, herbicidal effect grade (Italian ryegrass [20]): 4 (Herbicidal rate of 70% or more and less than 90%)
Herbicidal effect on E (rice flat sedge), foliage application (rice flat sedge): 3 (Herbicidal rate of 40% or more and less than 70%)
P: chickweed, herbicidal effect grade (chickweed [21]): 0 (Herbicidal rate of 5% or less (almost no effect))
Q: false cleavers, herbicidal effect grade (false cleavers): 0 (Herbicidal rate of 5% or less (almost no effect))
R (persian speedwell) herbicidal effect grade (persian speedwell [22]; [26]): 4 (Herbicidal rate of 70% or more and less than 90%)
P (chickweed) herbicidal effect grade (chickweed [23]; [26]): 5 (Herbicidal rate of 90% or more (almost completely withered))
J: blackgrass, herbicidal effect grade (blackgrass [24]): 0 (Herbicidal rate of 5% or less (almost no effect))
H: barnyard grass, herbicidal effect grade (barnyard grass [25]): 0 (Herbicidal rate of 5% or less (almost no effect))
